Data set [1] concerns mouse sarcoma, MCA205, and mouse melanoma, B16B16. As to the kind of experiment: Mouse tumor model, injected tumor cells. Format: in vivo, C57B1/6J mice. On the procedure:
Under these guidelines, anti-angiogenesis therapeutic studies were conducted using TM in a mouse tumor model. This study involved subcutaneous or intramuscular injection of tumor cells into young adult C57B1/6J mice. Two tumors were used, a mouse sarcoma, MCA205, and a mouse melanoma, B16B16. The MCA 205 tumor cell suspension was injected subcutaneously into C57B16 mice. After the tumors were palpable, copper deficiency was induced by use of TM in half the animals, using Cp levels to monitor copper status. The other half were sham treated. Tumor growth was compared between the untreated control group and mice treated with sufficient TM to reduce Cp to about 10% of normal controls.

For data set [2] the following is noted: cited from earlier work.
The conditions of data set [3]: IV 99Mo labeled TM, sheep; cited from earlier work.

Where two headings read alike, the source gives them in different places.

Take tetrathiomolybdate [TM]: the “tumor growth rate, final tumor size and weight” value in data set [1] (TM sufficient to reduce Cp to about 10% of normal, 16 days observation) was “significant effect on reducing the growth rate of tumors, and on reducing final tumor size and weight”. In addition, in data set [1] (mouse, in vivo), the “tumor weight normalized to total weight of the animal versus control” value is recorded as “weighed significantly less than the tumors in control mice”. For the same substance, the anemia entry in data set [2] (18 mg of TM) is given as “the anemia was severe”. Also, the effects in rats result in data set [2] (approximately 6 mg of TM per kilogram of diet) is on record as “substantial effects on copper”. For the same substance, in data set [2] (approximately 12 mg of TM), the anemia result was “Mild anemia was present” and the skeletal lesions entry is listed as “one of six animals”. Moreover, the “prevention of toxic effects by copper” value in data set [2] (up to 36 mg of TM per kilogram of diet) is “could be prevented by oral supplementation with copper”. In data set [3], the excreted in feces is on record as 5%, the excreted in urine result is listed as “over 90%” and the “t1/2 of slow plasma disappearance” value is reported as “about 40 h”.

The values above are taken from US7888389B2 (The Regents of the University of Michigan, priority 2002, dated 2011).
